Drawing on ChEMBL document CHEMBL3994622, “Design and synthesis of new RAF kinase-inhibiting antiproliferative quinoline derivatives. Part 2: Diarylurea derivatives” (Eur J Med Chem, 2017), this text covers growth for four compounds.

Holding throughout (type): functional
Assay [1] deals with HCT-116. The experiment in a line: Growth inhibition of human HCT116 cells assessed as cell growth at 10 uM incubated for 48 hrs by sulforhodamine B assay relative to control. To be noted: HCT-116, 48 h, read-out: Activity. (In general: Sulforhodamine B stains cellular protein and so reports cell mass.)
Assay [2] relates to EKVX. Description: Growth inhibition of human EKVX cells assessed as cell growth at 1 uM incubated for 48 hrs by sulforhodamine B assay relative to control. To be noted: read-out: Activity.
In assay [3] the test system is MDA-MB-231. Description: Growth inhibition of human MDA-MB-231 cells assessed as cell growth at 0.1 uM incubated for 48 hrs by sulforhodamine B assay relative to control. The settings on record: MDA-MB-231, 48 h, read-out: Activity.
Assay [4] relates to DU-145. The experiment in a line: Growth inhibition of human DU145 cells assessed as cell growth at 100 uM incubated for 48 hrs by sulforhodamine B assay relative to control. To be noted: DU-145, 48 h, read-out: Activity.
Assay [5] deals with A498. The experiment in a line: Growth inhibition of human A498 cells assessed as cell growth at 0.01 uM incubated for 48 hrs by sulforhodamine B assay relative to control. The settings on record: A498, 48 h, read-out: Activity.
Assay [6] has as its system DU-145. Description: Growth inhibition of human DU145 cells assessed as cell growth at 0.1 uM incubated for 48 hrs by sulforhodamine B assay relative to control. The settings on record: DU-145, 48 h, read-out: Activity.
Assay [7] concerns SF-539. The experiment in a line: Growth inhibition of human SF539 cells assessed as cell growth at 0.1 uM incubated for 48 hrs by sulforhodamine B assay relative to control. To be noted: SF-539, 48 h, read-out: Activity.
The subject of assay [8] is PC-3. The experiment in a line: Growth inhibition of human PC3 cells assessed as cell growth at 100 uM incubated for 48 hrs by sulforhodamine B assay relative to control. The settings on record: PC-3, 48 h, read-out: Activity.
The subject of assay [9] is MDA-MB-435. Description: Growth inhibition of human MDA-MB-435 cells assessed as cell growth at 0.1 uM incubated for 48 hrs by sulforhodamine B assay relative to control. The settings on record: MDA-MB-435, 48 h, read-out: Activity.
The test system of assay [10] is SNB-19. Description: Growth inhibition of human SNB19 cells assessed as cell growth at 1 uM incubated for 48 hrs by sulforhodamine B assay relative to control. To be noted: SNB-19, 48 h, read-out: Activity.
In assay [11] the test system is OVCAR-5. The experiment in a line: Growth inhibition of human OVCAR5 cells assessed as cell growth at 0.1 uM incubated for 48 hrs by sulforhodamine B assay relative to control. To be noted: OVCAR-5, 48 h, read-out: Activity.
Assay [12] relates to MDA-MB-231. Description: Growth inhibition of human MDA-MB-231 cells assessed as cell growth at 10 uM incubated for 48 hrs by sulforhodamine B assay relative to control. To be noted: MDA-MB-231, 48 h, read-out: Activity.
Assay [13] relates to OVCAR-5. Description: Growth inhibition of human OVCAR5 cells assessed as cell growth at 1 uM incubated for 48 hrs by sulforhodamine B assay relative to control. To be noted: OVCAR-5, 48 h, read-out: Activity.
The test system of assay [14] is A498. Description: Growth inhibition of human A498 cells assessed as cell growth at 100 uM incubated for 48 hrs by sulforhodamine B assay relative to control. The settings on record: A498, 48 h, read-out: Activity.
For assay [15], the system named is SN12C. Description: Growth inhibition of human SN12C cells assessed as cell growth at 0.3 uM incubated for 48 hrs by sulforhodamine B assay relative to control. The settings on record: read-out: Activity.
In assay [16] the test system is M14. The experiment in a line: Growth inhibition of human M14 cells assessed as cell growth at 0.03 uM incubated for 48 hrs by sulforhodamine B assay relative to control. The settings on record: M14, 48 h, read-out: Activity.
In assay [17] the test system is UO-31. The experiment in a line: Growth inhibition of human UO31 cells assessed as cell growth at 0.3 uM incubated for 48 hrs by sulforhodamine B assay relative to control. The settings on record: UO-31, 48 h, read-out: Activity.
Assay [18] has as its system OVCAR-3. The experiment in a line: Growth inhibition of human OVCAR3 cells assessed as cell growth at 0.003 uM incubated for 48 hrs by sulforhodamine B assay relative to control. To be noted: OVCAR-3, 48 h, read-out: Activity.
Assay [19] concerns COLO 205. Description: Growth inhibition of human COLO205 cells assessed as cell growth at 0.3 uM incubated for 48 hrs by sulforhodamine B assay relative to control. To be noted: COLO 205, 48 h, read-out: Activity.
For assay [20], the system named is CCRF-CEM. The experiment in a line: Growth inhibition of human CCRF-CEM cells assessed as cell growth at 0.03 uM incubated for 48 hrs by sulforhodamine B assay relative to control. To be noted: read-out: Activity.
For assay [21], the system named is MDA-MB-435. Description: Growth inhibition of human MDA-MB-435 cells assessed as cell growth at 0.3 uM incubated for 48 hrs by sulforhodamine B assay relative to control. To be noted: MDA-MB-435, 48 h, read-out: Activity.
Assay [22] relates to DU-145. Description: Growth inhibition of human DU145 cells assessed as cell growth at 30 uM incubated for 48 hrs by sulforhodamine B assay relative to control. To be noted: DU-145, 48 h, read-out: Activity.
Assay [23] has as its system A498. The experiment in a line: Growth inhibition of human A498 cells assessed as cell growth at 0.03 uM incubated for 48 hrs by sulforhodamine B assay relative to control. To be noted: A498, 48 h, read-out: Activity.
Assay [24] deals with NCI-H322M. The experiment in a line: Growth inhibition of human NCI-H322M cells assessed as cell growth at 0.003 uM incubated for 48 hrs by sulforhodamine B assay relative to control. To be noted: read-out: Activity.
For assay [25], the system named is HCC 2998. Description: Growth inhibition of human HCC2998 cells assessed as cell growth at 0.03 uM incubated for 48 hrs by sulforhodamine B assay relative to control. The settings on record: HCC 2998, 48 h, read-out: Activity.
The test system of assay [26] is ACHN. The experiment in a line: Growth inhibition of human ACHN cells assessed as cell growth at 0.3 uM incubated for 48 hrs by sulforhodamine B assay relative to control. To be noted: read-out: Activity.
Assay [27] concerns Hs-578T. Description: Growth inhibition of human Hs 578T cells assessed as cell growth at 0.3 uM incubated for 48 hrs by sulforhodamine B assay relative to control. The settings on record: read-out: Activity.
Assay [28] concerns UO-31. Description: Growth inhibition of human UO31 cells assessed as cell growth at 3 uM incubated for 48 hrs by sulforhodamine B assay relative to control. The settings on record: UO-31, 48 h, read-out: Activity.
The subject of assay [29] is SN12C. The experiment in a line: Growth inhibition of human SN12C cells assessed as cell growth at 3 uM incubated for 48 hrs by sulforhodamine B assay relative to control. The settings on record: read-out: Activity.
Assay [30] concerns SK-OV-3. Description: Growth inhibition of human SKOV3 cells assessed as cell growth at 0.03 uM incubated for 48 hrs by sulforhodamine B assay relative to control. To be noted: SK-OV-3, 48 h, read-out: Activity.
The subject of assay [31] is HOP-92. The experiment in a line: Growth inhibition of human HOP92 cells assessed as cell growth at 0.3 uM incubated for 48 hrs by sulforhodamine B assay relative to control. To be noted: HOP-92, 48 h, read-out: Activity.
Assay [32] relates to RPMI-8226. The experiment in a line: Growth inhibition of human RPMI8226 cells assessed as cell growth at 0.003 uM incubated for 48 hrs by sulforhodamine B assay relative to control. The settings on record: RPMI-8226, 48 h, read-out: Activity.
The subject of assay [33] is HCT-15. Description: Growth inhibition of human HCT15 cells assessed as cell growth at 0.03 uM incubated for 48 hrs by sulforhodamine B assay relative to control. The settings on record: HCT-15, 48 h, read-out: Activity.
Assay [34] has as its system TK-10. The experiment in a line: Growth inhibition of human TK10 cells assessed as cell growth at 0.03 uM incubated for 48 hrs by sulforhodamine B assay relative to control. The settings on record: TK-10, 48 h, read-out: Activity.
In assay [35] the test system is NCI-H522. The experiment in a line: Growth inhibition of human NCI-H522 cells assessed as cell growth at 30 uM incubated for 48 hrs by sulforhodamine B assay relative to control. The settings on record: NCI-H522, 48 h, read-out: Activity.

Take `COc1cc2cc(Oc3ccc(NC(=O)Nc4ccc(Cl)c(Cl)c4)cc3)c(C)nc2cc1OC`: the growth at 10 µM in assay [1] was determined as 2%; in assay [12] it was 8%. For the same compound, the growth at 1 µM in assay [2] amounted to 81%; in assay [10], 92%; in assay [13], 116%. For the same compound, the growth at 0.1 µM in [3] is 92%; in [6] it was 110%; in assay [7] it was 103%; in assay [9], 92%; in [11], 104%. The results for the growth at 100 µM in assay [4], in [8] and in [14] were -64%, -96% and -56%, respectively. Also, the growth at 0.01 µM in assay [5] worked out at 82%.

As for `COc1cc2cc(Oc3ccc(NC(=O)Nc4ccc(Cl)c(C(F)(F)F)c4)cc3)c(C)nc2cc1OC`, the growth at 0.3 µM in assay [15] was 94%; in assay [17] it was 105%; in [19] it was 102%; in [21], 91%; in [26] it was 95%; in assay [27] it was 84%. In addition, the growth at 0.3 µM in assay [31] was found to be 84%. Besides, the growth at 0.03 µM in [16] came to 82%; in [20], 103%; in assay [23] it was 68%; in assay [25], 106%; in [30], 100%; in assay [33], 93%. In [34], the growth at 0.03 µM turned out to be 91%. In addition, the growth at 0.003 µM worked out at 100% in assay [18], 91% in assay [24] and 100% in assay [32]. Moreover, the growth at 30 µM in assay [22] was -70%; in [35], -81%. Further, the growth at 3 µM in assay [28] was -17%; in assay [29], 21%.

As to `COc1cc2cc(Oc3ccc(NC(=O)Nc4cc(C(F)(F)F)cc(C(F)(F)F)c4)cc3)c(C)nc2cc1OC`, the growth at 10 µM in assay [1] is -84%; in assay [12] it was -83%. In addition, the growth at 1 µM was 50% in assay [2], 39% in assay [10] and 93% in [13]. Also, the growth at 0.1 µM in assay [3] was determined as 98%; in [6] it was 100%; in assay [7] it was 94%; in [9], 98%; in [11], 92%. Besides, the growth at 100 µM in [4] was -96%; in [8], -57%; in assay [14], -93%. In addition, the growth at 0.01 µM in assay [5] came to 97%.

In the case of `Cc1nc2cc(O)c(O)cc2cc1Oc1ccc(NC(=O)Nc2ccc(Cl)c(Cl)c2)cc1`, the growth at 0.3 µM in [15] was determined as 105%; in assay [17], 102%; in assay [19] it was 109%; in [21] it was 90%; in assay [26], 107%; in assay [27], 91%. The growth at 0.3 µM in [31] amounted to 77%. For the same compound, the growth at 0.03 µM in assay [16] stood at 89%; in [20], 95%; in [23], 75%; in [25] it was 99%; in assay [30], 102%; in [33], 98%. The growth at 0.03 µM in assay [34] was 104%. Besides, the figures for the growth at 0.003 µM in [18], in assay [24] and in assay [32] were 105%, 103% and 93%, respectively. In addition, the growth at 30 µM in assay [22] was -10%; in assay [35], -46%. In addition, the growth at 3 µM is 100% in [28] and 92% in assay [29].
